Common to all, as to experiment: Radiolabeled ATP kinase assay, panel of 60 kinases (Table S5)
What all share (assay type): biochemical

Experiment [1] deals with T1, panel of 60 human kinases (Homo sapiens, UniProt O94921).
T1 construct: purchased Reaction Biology Corp
The settings on record: CDK14/cyclin Y (PFTK1); 0.1 μM; 10 μM ATP; read-out: % Enzyme Activity (relative to DSMO controls). The procedure, abridged:
(§1)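 Cell-free radiolabeled-ATP kinase assays across a panel of 60 kinases; each compound tested at 0.1 μM and 0.5 μM for inhibition.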

Experiment [2] addresses T2, panel of 60 human kinases (Homo sapiens, UniProt P45983).
T2 construct: purchased Reaction Biology Corp
To be noted: JNK1; 0.1 μM; 10 μM ATP; read-out: % Enzyme Activity (relative to DSMO controls). An outline of the steps:
as §1

Experiment [3] addresses T3, panel of 60 human kinases (Homo sapiens, UniProt Q00535).
T3 construct: purchased Reaction Biology Corp
The settings on record: 0.1 μM, 10 μM ATP, read-out: % Enzyme Activity (relative to DSMO controls). An outline of the steps: as §1

Experiment [4] addresses T4, panel of 60 human kinases (Homo sapiens, UniProt Q00537).
T4 construct: purchased Reaction Biology Corp
The settings on record: CDK17/cyclin Y (PCTK2); 0.1 μM; 10 μM ATP; read-out: % Enzyme Activity (relative to DSMO controls). An outline of the steps: as §1

Experiment [5] addresses T5, panel of 60 human kinases (Homo sapiens, UniProt Q15759).
T5 construct: purchased Reaction Biology Corp
The settings on record: P38b/MAPK11; 0.1 μM; 10 μM ATP; read-out: % Enzyme Activity (relative to DSMO controls). An outline of the steps: as §1

Experiment [6] deals with T6, panel of 60 human kinases (Homo sapiens, UniProt Q7L7X3).
T6 construct: purchased Reaction Biology Corp
T6 sequence (Q7L7X3 1-1001): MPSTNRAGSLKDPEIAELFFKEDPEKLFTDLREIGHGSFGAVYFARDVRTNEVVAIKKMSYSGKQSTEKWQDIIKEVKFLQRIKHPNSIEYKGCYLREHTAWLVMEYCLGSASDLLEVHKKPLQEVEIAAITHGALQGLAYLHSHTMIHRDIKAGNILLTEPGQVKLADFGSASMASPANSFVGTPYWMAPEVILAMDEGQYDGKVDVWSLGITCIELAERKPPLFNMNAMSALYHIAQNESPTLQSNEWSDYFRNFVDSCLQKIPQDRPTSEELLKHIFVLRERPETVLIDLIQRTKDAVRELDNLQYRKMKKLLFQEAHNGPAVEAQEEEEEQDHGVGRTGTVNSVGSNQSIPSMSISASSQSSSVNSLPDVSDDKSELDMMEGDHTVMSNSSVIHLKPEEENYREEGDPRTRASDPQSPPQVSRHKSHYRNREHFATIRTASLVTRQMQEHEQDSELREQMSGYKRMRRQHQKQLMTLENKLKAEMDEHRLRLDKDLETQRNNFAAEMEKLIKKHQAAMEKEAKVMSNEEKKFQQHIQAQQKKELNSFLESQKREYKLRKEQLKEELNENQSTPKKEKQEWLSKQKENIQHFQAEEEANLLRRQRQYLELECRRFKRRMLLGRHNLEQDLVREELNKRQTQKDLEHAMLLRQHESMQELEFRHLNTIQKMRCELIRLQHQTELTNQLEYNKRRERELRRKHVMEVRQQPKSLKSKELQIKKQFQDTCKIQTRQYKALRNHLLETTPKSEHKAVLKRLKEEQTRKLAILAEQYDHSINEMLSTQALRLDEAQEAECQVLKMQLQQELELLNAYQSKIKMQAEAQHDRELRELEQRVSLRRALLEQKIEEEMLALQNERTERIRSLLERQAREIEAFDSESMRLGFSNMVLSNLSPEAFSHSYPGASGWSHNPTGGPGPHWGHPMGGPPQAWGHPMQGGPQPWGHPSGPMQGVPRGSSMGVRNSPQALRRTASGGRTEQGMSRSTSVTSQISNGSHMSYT
The settings on record: TAOK1; 0.1 μM; 10 μM ATP; read-out: % Enzyme Activity (relative to DSMO controls). The procedure, abridged:
as §1

The target in experiment [7] is T7, panel of 60 human kinases (Homo sapiens, UniProt Q8N4C8).
T7 construct: purchased Reaction Biology Corp
T7 sequence (Q8N4C8 whole entry): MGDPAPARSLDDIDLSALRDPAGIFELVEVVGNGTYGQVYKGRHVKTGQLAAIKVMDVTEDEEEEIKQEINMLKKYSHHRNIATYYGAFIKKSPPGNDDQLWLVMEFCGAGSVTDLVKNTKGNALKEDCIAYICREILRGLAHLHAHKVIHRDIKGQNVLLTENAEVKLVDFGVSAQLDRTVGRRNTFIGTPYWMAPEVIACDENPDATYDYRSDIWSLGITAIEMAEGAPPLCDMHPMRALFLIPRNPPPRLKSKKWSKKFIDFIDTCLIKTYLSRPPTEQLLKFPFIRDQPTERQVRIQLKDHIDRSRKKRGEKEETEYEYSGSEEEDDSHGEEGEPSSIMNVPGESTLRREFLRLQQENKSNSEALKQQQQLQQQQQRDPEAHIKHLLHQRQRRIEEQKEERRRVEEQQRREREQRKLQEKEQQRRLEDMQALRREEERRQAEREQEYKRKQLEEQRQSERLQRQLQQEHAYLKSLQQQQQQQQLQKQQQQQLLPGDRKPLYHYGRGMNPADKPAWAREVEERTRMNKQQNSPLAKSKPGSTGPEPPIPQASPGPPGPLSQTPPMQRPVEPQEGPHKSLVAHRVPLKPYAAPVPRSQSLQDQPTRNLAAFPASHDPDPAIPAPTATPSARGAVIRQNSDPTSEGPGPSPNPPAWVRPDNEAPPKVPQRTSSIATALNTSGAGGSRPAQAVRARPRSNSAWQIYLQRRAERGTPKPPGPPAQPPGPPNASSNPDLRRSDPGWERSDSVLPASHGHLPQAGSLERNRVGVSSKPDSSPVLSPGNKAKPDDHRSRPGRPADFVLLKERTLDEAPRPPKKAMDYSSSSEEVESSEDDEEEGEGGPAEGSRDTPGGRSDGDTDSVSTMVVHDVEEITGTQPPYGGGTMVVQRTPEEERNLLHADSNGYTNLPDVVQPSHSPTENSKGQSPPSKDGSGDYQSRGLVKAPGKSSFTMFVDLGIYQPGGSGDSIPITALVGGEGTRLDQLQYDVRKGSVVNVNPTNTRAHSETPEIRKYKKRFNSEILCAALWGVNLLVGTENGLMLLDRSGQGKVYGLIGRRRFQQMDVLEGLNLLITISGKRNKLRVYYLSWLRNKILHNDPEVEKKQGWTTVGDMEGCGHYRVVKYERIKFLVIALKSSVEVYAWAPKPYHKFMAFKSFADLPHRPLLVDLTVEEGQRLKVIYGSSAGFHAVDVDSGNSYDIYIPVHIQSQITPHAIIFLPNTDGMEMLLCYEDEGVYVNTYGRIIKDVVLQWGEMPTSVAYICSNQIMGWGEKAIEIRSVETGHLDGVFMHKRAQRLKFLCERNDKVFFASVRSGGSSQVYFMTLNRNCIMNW
To be noted: MINK/MINK1; 0.1 μM; 10 μM ATP; read-out: % Enzyme Activity (relative to DSMO controls). An outline of the steps: as §1

Experiment [8] has as its target T8, panel of 60 human kinases (Homo sapiens, UniProt Q9UKE5).
T8 construct: purchased Reaction Biology Corp
To be noted: TNIK; 0.1 μM; 10 μM ATP; read-out: % Enzyme Activity (relative to DSMO controls). The procedure, abridged:
as §1

In experiment [9] the target is T9, panel of 60 human kinases (Homo sapiens, UniProt Q9Y4K4).
T9 construct: purchased Reaction Biology Corp
T9 sequence (Q9Y4K4 whole entry): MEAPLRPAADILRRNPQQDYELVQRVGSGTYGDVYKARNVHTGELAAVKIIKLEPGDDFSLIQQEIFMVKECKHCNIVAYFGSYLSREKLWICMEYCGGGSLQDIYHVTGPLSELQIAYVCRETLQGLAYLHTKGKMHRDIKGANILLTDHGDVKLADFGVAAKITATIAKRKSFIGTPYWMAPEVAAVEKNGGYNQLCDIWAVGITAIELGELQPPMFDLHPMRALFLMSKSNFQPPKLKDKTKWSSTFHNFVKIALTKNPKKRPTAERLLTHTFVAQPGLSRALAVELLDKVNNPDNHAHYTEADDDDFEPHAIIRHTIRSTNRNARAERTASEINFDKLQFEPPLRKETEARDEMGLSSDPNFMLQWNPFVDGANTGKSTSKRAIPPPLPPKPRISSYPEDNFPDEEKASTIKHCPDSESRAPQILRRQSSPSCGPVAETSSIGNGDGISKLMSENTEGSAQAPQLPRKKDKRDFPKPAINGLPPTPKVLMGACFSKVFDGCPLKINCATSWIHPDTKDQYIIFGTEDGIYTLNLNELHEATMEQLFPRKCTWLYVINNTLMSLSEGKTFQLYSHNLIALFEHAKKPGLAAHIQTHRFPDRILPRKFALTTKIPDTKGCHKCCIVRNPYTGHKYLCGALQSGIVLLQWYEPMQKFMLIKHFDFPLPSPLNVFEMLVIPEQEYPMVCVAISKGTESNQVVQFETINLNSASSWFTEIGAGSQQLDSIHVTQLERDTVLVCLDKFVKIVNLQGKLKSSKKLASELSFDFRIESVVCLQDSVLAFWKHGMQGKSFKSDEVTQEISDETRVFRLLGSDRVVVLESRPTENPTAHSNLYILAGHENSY
To be noted: KHS/MAPK4K5; 0.1 μM; 10 μM ATP; read-out: % Enzyme Activity (relative to DSMO controls). An outline of the steps: as §1

Like-named read-outs stand apart in the source and are kept apart here.

T4 sequence (Q00537 whole entry): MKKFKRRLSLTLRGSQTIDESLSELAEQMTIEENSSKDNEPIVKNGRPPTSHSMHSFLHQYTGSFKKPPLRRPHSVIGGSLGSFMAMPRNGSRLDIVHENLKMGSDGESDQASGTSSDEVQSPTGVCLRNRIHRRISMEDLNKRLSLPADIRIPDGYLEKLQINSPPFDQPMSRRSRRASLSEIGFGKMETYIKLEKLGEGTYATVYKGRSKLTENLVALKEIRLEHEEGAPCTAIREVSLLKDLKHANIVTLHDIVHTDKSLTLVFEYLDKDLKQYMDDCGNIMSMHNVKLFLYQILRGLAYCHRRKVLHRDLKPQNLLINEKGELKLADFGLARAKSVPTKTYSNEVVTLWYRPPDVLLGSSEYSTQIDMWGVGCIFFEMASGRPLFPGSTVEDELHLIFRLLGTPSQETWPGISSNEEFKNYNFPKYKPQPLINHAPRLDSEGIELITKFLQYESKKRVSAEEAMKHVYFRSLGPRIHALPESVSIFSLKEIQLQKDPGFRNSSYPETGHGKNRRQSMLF
T1 sequence (O94921 whole entry): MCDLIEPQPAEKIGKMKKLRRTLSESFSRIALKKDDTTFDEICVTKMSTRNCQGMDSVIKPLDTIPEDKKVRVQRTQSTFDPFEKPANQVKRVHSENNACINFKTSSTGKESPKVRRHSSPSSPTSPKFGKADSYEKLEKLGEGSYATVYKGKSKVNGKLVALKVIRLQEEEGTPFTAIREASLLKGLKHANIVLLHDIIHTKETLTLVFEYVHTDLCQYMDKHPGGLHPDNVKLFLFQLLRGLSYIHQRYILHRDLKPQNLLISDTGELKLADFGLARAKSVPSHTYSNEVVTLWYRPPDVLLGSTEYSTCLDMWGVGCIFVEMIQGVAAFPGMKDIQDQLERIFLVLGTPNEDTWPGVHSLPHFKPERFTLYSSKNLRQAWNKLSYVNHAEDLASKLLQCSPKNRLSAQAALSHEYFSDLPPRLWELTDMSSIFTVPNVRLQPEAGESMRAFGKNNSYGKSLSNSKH
T2 sequence (P45983 whole entry): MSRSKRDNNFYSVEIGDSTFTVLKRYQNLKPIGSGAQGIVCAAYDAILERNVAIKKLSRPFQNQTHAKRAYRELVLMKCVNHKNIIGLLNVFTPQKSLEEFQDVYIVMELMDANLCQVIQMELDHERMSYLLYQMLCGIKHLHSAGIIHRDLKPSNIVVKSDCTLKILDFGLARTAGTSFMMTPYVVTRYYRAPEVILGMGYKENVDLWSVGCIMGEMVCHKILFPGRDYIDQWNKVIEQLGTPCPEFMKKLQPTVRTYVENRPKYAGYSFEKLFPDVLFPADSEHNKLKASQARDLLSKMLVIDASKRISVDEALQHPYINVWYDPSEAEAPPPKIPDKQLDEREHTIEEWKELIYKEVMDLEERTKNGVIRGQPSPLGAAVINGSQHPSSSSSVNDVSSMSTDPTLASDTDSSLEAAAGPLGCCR
T8 sequence (Q9UKE5 whole entry): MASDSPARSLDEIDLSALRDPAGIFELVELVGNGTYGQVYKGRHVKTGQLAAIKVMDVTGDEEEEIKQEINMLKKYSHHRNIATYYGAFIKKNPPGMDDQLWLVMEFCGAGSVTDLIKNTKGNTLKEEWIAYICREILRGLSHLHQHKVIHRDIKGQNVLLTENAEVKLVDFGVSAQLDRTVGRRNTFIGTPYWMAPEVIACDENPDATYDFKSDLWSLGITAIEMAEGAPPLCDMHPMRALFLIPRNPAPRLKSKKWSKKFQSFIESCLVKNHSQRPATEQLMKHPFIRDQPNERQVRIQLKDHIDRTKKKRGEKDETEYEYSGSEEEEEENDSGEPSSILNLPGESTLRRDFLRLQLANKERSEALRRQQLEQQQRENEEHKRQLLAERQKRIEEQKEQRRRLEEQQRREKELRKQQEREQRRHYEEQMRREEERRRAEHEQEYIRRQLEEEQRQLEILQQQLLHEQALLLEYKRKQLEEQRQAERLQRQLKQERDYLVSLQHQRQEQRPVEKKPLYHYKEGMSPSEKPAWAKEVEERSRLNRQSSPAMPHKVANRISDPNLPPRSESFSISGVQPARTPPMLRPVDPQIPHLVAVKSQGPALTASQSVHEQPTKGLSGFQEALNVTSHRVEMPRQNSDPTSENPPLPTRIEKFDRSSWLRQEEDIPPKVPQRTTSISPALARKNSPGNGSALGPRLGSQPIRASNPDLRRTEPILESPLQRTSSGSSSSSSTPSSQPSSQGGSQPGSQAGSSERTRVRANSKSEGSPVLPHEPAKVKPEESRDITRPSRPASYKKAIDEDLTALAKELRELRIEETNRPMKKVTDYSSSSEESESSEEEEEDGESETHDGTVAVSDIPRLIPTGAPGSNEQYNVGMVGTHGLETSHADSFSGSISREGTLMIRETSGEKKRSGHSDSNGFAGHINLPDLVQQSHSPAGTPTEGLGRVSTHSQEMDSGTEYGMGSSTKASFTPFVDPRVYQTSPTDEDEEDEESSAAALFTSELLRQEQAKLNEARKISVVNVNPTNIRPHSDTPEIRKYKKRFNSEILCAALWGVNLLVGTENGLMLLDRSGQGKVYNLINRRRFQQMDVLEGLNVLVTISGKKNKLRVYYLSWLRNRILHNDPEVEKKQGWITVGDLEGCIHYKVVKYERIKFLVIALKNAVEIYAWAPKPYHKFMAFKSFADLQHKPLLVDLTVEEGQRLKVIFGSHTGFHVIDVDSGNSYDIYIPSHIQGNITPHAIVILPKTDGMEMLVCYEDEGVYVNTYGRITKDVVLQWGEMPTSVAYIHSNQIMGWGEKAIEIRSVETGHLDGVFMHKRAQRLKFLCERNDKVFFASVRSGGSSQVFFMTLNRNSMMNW

Regarding `CN1CCN(Cc2ccc(-c3cnc4[nH]cc(-c5ccc6[nH]ccc6c5)c4c3)cc2)CC1` [Compound 1, 3-(1H-Indol-5-yl)-5-(4-((4-methylpiperazin-1-yl)methyl)phenyl)-1H-pyrrolo[2,3-b]pyridine, reference compound], the remaining activity at 0.1 µM in [1] amounted to 88.2%; in experiment [2], 75.3%; in experiment [3] (CDK5/p25), 52.8%; in experiment [3] (CDK5/p35), 52.3%; in [4], 66.1%; in experiment [5], 104%. For the same compound, the remaining activity at 0.1 µM in experiment [6] worked out at 63.5%; in experiment [7] it was 5.53%; in [8] it was 3%; in experiment [9], 11%.
With `CN1CCN(Cc2ccc(-c3cnc4[nH]cc(-c5cccc(Cl)c5)c4c3)cc2)CC1` [Compound 7ad, 3-(3-Chlorophenyl)-5-(4-((4-methylpiperazin-1-yl)methyl)phenyl)-1H-pyrrolo[2,3-b]pyridine], the remaining activity at 0.1 µM was 92.5% in experiment [1]; 88.7% in [2]; 84.4% in experiment [3] (CDK5/p25); 83.9% in experiment [3] (CDK5/p35); 70.4% in experiment [4]; 103% in experiment [5]. In addition, the remaining activity at 0.1 µM in experiment [6] was 75.4%; in [7] it was 3.06%; in experiment [8], 0.68%; in [9] it was 5.8%.
For the compound `CN1CCN(Cc2ccc(-c3cnc4[nH]cc(-c5cnn(Cc6ccccc6)c5)c4c3)cc2)CC1` [Compound 7ah, 3-(1-Benzyl-1H-pyrazol-4-yl)-5-(4-((4-methylpiperazin-1-yl)methyl)phenyl)-1H-pyrrolo[2,3-b]pyridine], the remaining activity at 0.1 µM in experiment [1] stood at 30.1%; in experiment [2], 18.6%; in experiment [3] (CDK5/p25), 52%; in [3] (CDK5/p35), 46.3%; in experiment [4], 7.55%; in experiment [5] it was 101%. The remaining activity at 0.1 µM in [6] is 62.1%; in experiment [7], 5.06%; in experiment [8], 0.96%; in experiment [9] it was 6.09%.
Consider `Cc1nn(C)c(C)c1-c1c[nH]c2ncc(-c3ccc(CN4CCN(C)CC4)cc3)cc12` [Compound 7ai, 5-(4-((4-Methylpiperazin-1-yl)methyl)phenyl)-3-(1,3,5-trimethyl-1H-pyrazol-4-yl)-1H-pyrrolo[2,3-b]pyridine], for which the remaining activity at 0.1 µM worked out at 83.9% in experiment [1]; 77.7% in experiment [2]; 93.2% in experiment [3] (CDK5/p25); 87.9% in [3] (CDK5/p35); 69.4% in [4]; 104% in [5]. Also, the remaining activity at 0.1 µM in [6] came to 93.3%; in [7], 7.8%; in [8] it was 1.35%; in [9], 16.5%.
Consider `CN1CCN(Cc2ccc(-c3cnc4[nH]cc(-c5ccccc5Cl)c4c3)cc2)CC1` [Compound 7as, 3-(2-Chlorophenyl)-5-(4-((4-methylpiperazin-1-yl)methyl)phenyl)-1H-pyrrolo[2,3-b]pyridine], for which the remaining activity at 0.1 µM worked out at 85% in experiment [1]; 74.6% in [2]; 48.6% in experiment [3] (CDK5/p25); 36% in experiment [3] (CDK5/p35); 44.1% in experiment [4]; 99.5% in experiment [5]. In addition, the remaining activity at 0.1 µM in [6] was determined as 39.3%; in [7], 0.19%; in experiment [8], 0.51%; in [9], 0.89%.
For the compound `COc1ccccc1-c1c[nH]c2ncc(-c3ccc(CN4CCN(C)CC4)cc3)cc12` [Compound 7at, 3-(2-Methoxyphenyl)-5-(4-((4-methylpiperazin-1-yl)methyl)phenyl)-1H-pyrrolo[2,3-b]pyridine], the remaining activity at 0.1 µM in [1] amounted to 76.4%; in [2], 102%; in experiment [3] (CDK5/p25) it was 43.1%; in experiment [3] (CDK5/p35) it was 31.9%; in [4], 69.7%; in experiment [5], 97.7%. For the same compound, the remaining activity at 0.1 µM in experiment [6] amounted to 40.5%; in experiment [7] it was 9.84%; in experiment [8], 2.2%; in [9] it was 3.35%.
As to `CN1CCN(Cc2ccc(-c3cnc4[nH]cc(-c5ccc6c(c5)OCCO6)c4c3)cc2)CC1` [Compound 7d, 3-(2,3-Dihydrobenzo[b][1,4]dioxin-6-yl)-5-(4-((4-methylpiperazin-1-yl)methyl)phenyl)-1H-pyrrolo[2,3-b]pyridine], the remaining activity at 0.1 µM worked out at 66.3% in [1]; 52.2% in experiment [2]; 16.4% in experiment [3] (CDK5/p25); 14.2% in experiment [3] (CDK5/p35); 41.1% in experiment [4]; 101% in experiment [5]. Also, the remaining activity at 0.1 µM in [6] amounted to 37.3%; in [7] it was 6.69%; in experiment [8], 12.1%; in experiment [9], 4.17%.
For the compound `CN1CCN(Cc2ccc(-c3cnc4[nH]cc(-c5ccncc5)c4c3)cc2)CC1` [Compound 7n, 5-(4-((4-Methylpiperazin-1-yl)methyl)phenyl)-3-(pyridin-4-yl)-1H-pyrrolo[2,3-b]pyridine], the remaining activity at 0.1 µM was 35% in experiment [1]; 85.5% in [2]; 69.2% in experiment [3] (CDK5/p25); 57.5% in [3] (CDK5/p35); 10.7% in [4]; 101% in experiment [5]. Moreover, the remaining activity at 0.1 µM in experiment [6] came to 87.4%; in experiment [7] it was 38.8%; in [8], 6.7%; in experiment [9], 30.9%.
For `CN1CCN(Cc2ccc(-c3cnc4[nH]cc(-c5ccoc5)c4c3)cc2)CC1` [Compound 7w, 3-(Furan-3-yl)-5-(4-((4-methylpiperazin-1-yl)methyl)phenyl)-1H-pyrrolo[2,3-b]pyridine], the remaining activity at 0.1 µM in experiment [1] was determined as 83.8%; in [2], 76.8%; in experiment [3] (CDK5/p25), 89.4%; in experiment [3] (CDK5/p35), 82.2%; in experiment [4], 61.4%; in experiment [5] it was 99.3%. Further, the remaining activity at 0.1 µM stood at 90% in experiment [6], 3.72% in experiment [7], 0.45% in [8] and 15.1% in experiment [9].

(Values after patent US12227500B2, “Substituted pyrrolo[2,3-b]pyridines for suppressing toxic endoplasmic reticulum stress” (THE TRUSTEES OF COLUMBIA UNIVERSITY IN THE CITY OF NEW YORK, priority 2018, dated 2025).)
